From patent US9850225B2, “Compounds useful as immunomodulators” (BRISTOL-MYERS SQUIBB COMPANY, priority 2014, dated 2017)

Biological target: PD-1/PD-L1 interaction (PD-1-Ig / PD-L1-His) (Homo sapiens (Human), UniProt Q9NZQ7)
Assay: PD-1/PD-L1 Homogenous Time-Resolved Fluorescence (HTRF) binding assay
Settings: PD-1/PD-L1 HTRF binding assay; numeric value; read-out: Range or IC50
Text: The ability of the compounds of formula (I) to bind to PD-L1 was investigated using a PD-1/PD-L1 Homogenous Time-Resolved Fluorescence (HTRF) binding assay.
Homogenous Time-Resolved Fluorescence (HTRF) Binding Assay.
The interaction of PD-1 and PD-L1 can be assessed using soluble, purified preparations of the extracellular domains of the two proteins. The PD-1 and PD-L1 protein extracellular domains were expressed as fusion proteins with detection tags, for PD-1, the tag was the Fc portion of Immunoglobulin (PD-1-Ig) and for PD-L1 it was the 6 histidine motif (PD-L1-His). All binding studies were performed in an HTRF assay buffer consisting of dPBS supplemented with 0.1% […] bovine serum albumin and 0.05% (v/v) Tween-20. For the h/PD-L1-His binding assay, inhibitors were pre-incubated with PD-L1-His (10 nM final) for 15 m in 4 μl of assay buffer, followed by addition of PD-1-Ig (20 nM final) in 1 μl of assay buffer and further incubation for 15 m. HTRF detection was achieved using europium crypate-labeled anti-Ig (1 nM final) and allophycocyanin (APC) labeled anti-His (20 nM final). Antibodies were diluted in HTRF detection buffer and 5 μl was dispensed on top of the binding reaction. […] Additional binding assays were established between the human proteins PD-1-Ig/PD-L2-His (20 & 5 nM, respectively) and CD80-His/PD-L1-Ig (100 & 10 nM, respectively). […]

Sequence of PD-1/PD-L1 interaction (PD-1-Ig / PD-L1-His) (Q9NZQ7 other isoform, or with tags, fused parts or gaps): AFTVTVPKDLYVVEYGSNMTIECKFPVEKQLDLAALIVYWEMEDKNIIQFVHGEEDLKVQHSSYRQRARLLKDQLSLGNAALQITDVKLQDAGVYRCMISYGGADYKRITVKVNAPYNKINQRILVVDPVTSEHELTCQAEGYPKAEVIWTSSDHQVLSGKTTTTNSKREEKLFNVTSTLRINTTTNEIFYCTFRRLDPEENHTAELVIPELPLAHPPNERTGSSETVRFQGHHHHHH

IC50	Compound
0.828 µM	CC(=O)NCCNCc1ccc(OCc2cccc(-c3ccccc3)c2C)cc1OCc1cccc(OC(F)(F)F)c1 [Example 1082, N-(2-((4-((2-methyl-[1,1′-biphenyl]-3-yl)methoxy)-2-((3-(trifluoromethoxy)benzyl)oxy)benzyl)amino)ethyl)acetamide]

Same assay, conditions: PD-1/PD-L1 HTRF binding assay; value given as range class; read-out: Range or IC50

Compound	IC50
CC(=O)NCCNCc1ccc(OCc2cccc(-c3ccccc3)c2C)cc1OCc1cccc(Oc2ccccc2F)c1 [Example 1077, N-(2-((2-((3-(2-fluorophenoxyl)benzyl)oxy)-4-((2-methyl-[1,1′-biphenyl]-3-yl)methoxy)benzyl)amino)ethyl)acetamide]	0.1 to 20 µM
CC(=O)NCCNCc1ccc(OCc2cccc(-c3ccccc3)c2C)cc1OCc1cccc(Oc2ccc(F)cc2)c1 [Example 1078, N-(2-((2-((3-(4-fluorophenoxyl)benzyl)oxy)-4-((2-methyl-[1,1′-biphenyl]-3-yl)methoxy)benzyl)amino)ethyl)acetamide]	0.1 to 20 µM
CC(=O)NCCNCc1ccc(OCc2cccc(-c3ccccc3)c2C)cc1OCc1cc(C(F)(F)F)ccc1F [Example 1080, N-(2-((2-((2-fluoro-5-(trifluoromethyl)benzyl)oxy)-4-((2-methyl-[1,1′-biphenyl]-3-yl)methoxy)benzyl)amino)ethyl)acetamide]	0.1 to 20 µM
CC(=O)NCCNCc1ccc(OCc2cccc(-c3ccccc3)c2C)cc1OCc1cc(F)cc(C(F)(F)F)c1 [Example 1081, N-(2-((2-((3-fluoro-5-(trifluoromethyl)benzyl)oxy)-4-((2-methyl-[1,1′-biphenyl]-3-yl)methoxy)benzyl)amino)ethyl)acetamide]	0.1 to 20 µM
CC(=O)NCCNCc1ccc(OCc2cccc(-c3ccccc3)c2C)cc1OCc1ccc2nc(C(F)(F)F)cc(Cl)c2c1 [Example 1083, N-(2-((2-((4-chloro-2-(trifluoromethyl)quinolin-6-yl)methoxy)-4-((2-methyl-[1,1′-biphenyl]-3-yl)methoxy)benzyl)amino)ethyl)acetamide]	0.1 to 20 µM
CC(=O)NCCNCc1ccc(OCc2cccc(-c3ccccc3)c2C)cc1OCc1ccc(S(C)(=O)=O)cc1 [Example 1084, N-(2-((4-((2-methyl-[1,1′-biphenyl]-3-yl)methoxy)-2-((4-(methylsulfonyl)benzyl)oxy)benzyl)amino)ethyl)acetamide]	0.1 to 20 µM
CC(=O)NCCNCc1ccc(OCc2cccc(-c3ccccc3)c2C)cc1OCc1ccccc1OC(F)F [Example 1085, N-(2-((2-((2-(difluoromethoxy)benzyl)oxy)-4-((2-methyl-[1,1′-biphenyl]-3-yl)methoxy)benzyl)amino)ethyl)acetamide]	0.1 to 20 µM
COc1cccc(COc2cc(OCc3cccc(-c4ccccc4)c3C)ccc2CNCCNC(C)=O)c1 [Example 1086, N-(2-((2-((3-methoxybenzyl)oxy)-4-((2-methyl-[1,1′-biphenyl]-3-yl)methoxy)benzyl)amino)ethyl)acetamide]	0.1 to 20 µM
CC(=O)NCCNCc1ccc(OCc2cccc(-c3ccccc3)c2C)cc1OCc1ccccc1OC(F)(F)F [Example 1087, N-(2-((4-((2-methyl-[1,1′-biphenyl]-3-yl)methoxy)-2-((2-(trifluoromethoxy)benzyl)oxy)benzyl)amino)ethyl)acetamide]	0.1 to 20 µM
CC(=O)NCCNCc1ccc(OCc2cccc(-c3ccccc3)c2C)cc1OCc1ccc(OC(F)F)cc1 [Example 1088, N-(2-((2-((4-(difluoromethoxy)benzyl)oxy)-4-((2-methyl-[1,1′-biphenyl]-3-yl)methoxy)benzyl)amino)ethyl)acetamide]	0.1 to 20 µM
CC(=O)NCCNCc1ccc(OCc2cccc(-c3ccccc3)c2C)cc1OCc1ccc(-c2ccccc2C#N)cc1 [Example 1089, N-(2-((2-((2′-cyano-[1,1′-biphenyl]-4-yl)methoxy)-4-((2-methyl-[1,1′-biphenyl]-3-yl)methoxy)benzyl)amino)ethyl)acetamide]	0.1 to 20 µM
COc1ccc(COc2cc(OCc3cccc(-c4ccccc4)c3C)ccc2CNCCNC(C)=O)cc1 [Example 1090, N-(2-((2-((4-methoxybenzyl)oxy)-4-((2-methyl-[1,1′-biphenyl]-3-yl)methoxy)benzyl)amino)ethyl)acetamide]	0.1 to 20 µM
CC(=O)NCCNCc1ccc(OCc2cccc(-c3ccccc3)c2C)cc1OCc1cc(F)cc(Cl)c1 [Example 1091, N-(2-((2-((3-chloro-5-fluorobenzyl)oxy)-4-((2-methyl-[1,1′-biphenyl]-3-yl)methoxy)benzyl)amino)ethyl)acetamide]	0.1 to 20 µM

More lines, now with the values ahead:

IC50	Compound
0.1 to 20 µM	CC(=O)NCCNCc1ccc(OCc2cccc(-c3ccccc3)c2C)cc1OCc1cc(C(F)(F)F)cc(C(F)(F)F)c1 [Example 1061, N-(2-((2-((3,5-bis(trifluoromethyl)benzyl)oxy)-4-((2-methyl-[1,1′-biphenyl]-3-yl)methoxy)benzyl)amino)ethyl)acetamide]
0.1 to 20 µM	CC(=O)NCCNCc1ccc(OCc2cccc(-c3ccccc3)c2C)cc1OCc1cc(F)cc(F)c1 [Example 1062, N-(2-((2-((3,5-difluorobenzyl)oxy)-4-((2-methyl-[1,1′-biphenyl]-3-yl)methoxy)benzyl)amino)ethyl)acetamide]
0.1 to 20 µM	CC(=O)NCCNCc1ccc(OCc2cccc(-c3ccccc3)c2C)cc1OCc1cccc2ccccc12 [Example 1063, N-(2-((4-((2-methyl-[1,1′-biphenyl]-3-yl)methoxy)-2-(naphthalen-1-ylmethoxy)benzyl)amino)ethyl)acetamide]
0.1 to 20 µM	CC(=O)NCCNCc1ccc(OCc2cccc(-c3ccccc3)c2C)cc1OCc1ccc(F)cc1F [Example 1064, N-(2-((2-((2,4-difluorobenzyl)oxy)-4-((2-methyl-[1,1′-biphenyl]-3-yl)methoxy)benzyl)amino)ethyl)acetamide]
0.1 to 20 µM	CC(=O)NCCNCc1ccc(OCc2cccc(-c3ccccc3)c2C)cc1OCc1cc(C)cc(C)c1 [Example 1065, N-(2-((2-((3,5-dimethylbenzyl)oxy)-4-((2-methyl-[1,1′-biphenyl]-3-yl)methoxy)benzyl)amino)ethyl)acetamide]
0.1 to 20 µM	CC(=O)NCCNCc1ccc(OCc2cccc(-c3ccccc3)c2C)cc1OCc1ccccc1C(F)(F)F [Example 1066, N-(2-((4-((2-methyl-[1,1′-biphenyl]-3-yl)methoxy)-2-((2-(trifluoromethyl)benzyl)oxy)benzyl)amino)ethyl)acetamide]
0.1 to 20 µM	COC(=O)c1ccc(COc2cc(OCc3cccc(-c4ccccc4)c3C)ccc2CNCCNC(C)=O)cc1 [Example 1067, methyl 4-((2-(((2-acetamidoethyl)amino)methyl)-5-((2-methyl-[1,1′-biphenyl]-3-yl)methoxy)phenoxy)methyl)benzoate]
0.1 to 20 µM	CC(=O)NCCNCc1ccc(OCc2cccc(-c3ccccc3)c2C)cc1OCc1ccc(Cl)cc1 [Example 1068, N-(2-((2-((4-chlorobenzyl)oxy)-4-((2-methyl-[1,1′-biphenyl]-3-yl)methoxy)benzyl)amino)ethyl)acetamide]
0.1 to 20 µM	CC(=O)NCCNCc1ccc(OCc2cccc(-c3ccccc3)c2C)cc1OCc1ccc(Cl)c(Cl)c1 [Example 1069, N-(2-((2-((3,4-dichlorobenzyl)oxy)-4-((2-methyl-[1,1′-biphenyl]-3-yl)methoxy)benzyl)amino)ethyl)acetamide]
0.1 to 20 µM	CC(=O)NCCNCc1ccc(OCc2cccc(-c3ccccc3)c2C)cc1OCc1cccc(C)c1F [Example 1070, N-(2-((2-((2-fluoro-3-methylbenzyl)oxy)-4-((2-methyl-[1,1′-biphenyl]-3-yl)methoxy)benzyl)amino)ethyl)acetamide]
0.1 to 20 µM	CC(=O)NCCNCc1ccc(OCc2cccc(-c3ccccc3)c2C)cc1OCc1cccc(F)c1F [Example 1071, N-(2-((2-((2,3-difluorobenzyl)oxy)-4-((2-methyl-[1,1′-biphenyl]-3-yl)methoxy)benzyl)amino)ethyl)acetamide]
0.1 to 20 µM	CC(=O)NCCNCc1ccc(OCc2cccc(-c3ccccc3)c2C)cc1OCc1cccc(Cl)c1F [Example 1072, N-(2-((2-((3-chloro-2-fluorobenzyl)oxy)-4-((2-methyl-[1,1′-biphenyl]-3-yl)methoxy)benzyl)amino)ethyl)acetamide]
0.1 to 20 µM	CC(=O)NCCNCc1ccc(OCc2cccc(-c3ccccc3)c2C)cc1OCc1cccc(C(=O)c2ccccc2)c1 [Example 1073, N-(2-((2-((3-benzoylbenzyl)oxy)-4-((2-methyl-[1,1′-biphenyl]-3-yl)methoxy)benzyl)amino)ethyl)acetamide]
0.1 to 20 µM	CC(=O)NCCNCc1ccc(OCc2cccc(-c3ccccc3)c2C)cc1OCc1cccc2cccnc12 [Example 1074, N-(2-((4-((2-methyl-[1,1′-biphenyl]-3-yl)methoxy)-2-(quinolin-8-ylmethoxy)benzyl)amino)ethyl)acetamide]
0.1 to 20 µM	CC(=O)NCCNCc1ccc(OCc2cccc(-c3ccccc3)c2C)cc1OCc1ccc(F)cc1 [Example 1075, N-(2-((2-((4-fluorobenzyl)oxy)-4-((2-methyl-[1,1′-biphenyl]-3-yl)methoxy)benzyl)amino)ethyl)acetamide]

Same assay, conditions: read-out: Range or IC50

Compound	IC50
CC(=O)NCCNCc1ccc(OCc2cccc(-c3ccccc3)c2C)cc1OCc1cccc([N+](=O)[O-])c1 [Example 1076]	0.01 to 0.1 µM
